Some results are limits rather than exact numbers.

Experimental findings from US5990158A, “Carboxylic acid derivatives, method of manufacturing the same and therapeutic agents containing these compounds” (Kotobuki Seiyaku Co., Ltd., priority 1996, dated 1999) are described below.

One assay has as its target T1, MMP-2 (gelatinase A) (Homo sapiens, UniProt P08253).
T1 construct: made in house; host or cells: COS-1 cells transfected with human pro-MMP-2 cDNA (secreted into culture medium)
T1 sequence (P08253 110-660): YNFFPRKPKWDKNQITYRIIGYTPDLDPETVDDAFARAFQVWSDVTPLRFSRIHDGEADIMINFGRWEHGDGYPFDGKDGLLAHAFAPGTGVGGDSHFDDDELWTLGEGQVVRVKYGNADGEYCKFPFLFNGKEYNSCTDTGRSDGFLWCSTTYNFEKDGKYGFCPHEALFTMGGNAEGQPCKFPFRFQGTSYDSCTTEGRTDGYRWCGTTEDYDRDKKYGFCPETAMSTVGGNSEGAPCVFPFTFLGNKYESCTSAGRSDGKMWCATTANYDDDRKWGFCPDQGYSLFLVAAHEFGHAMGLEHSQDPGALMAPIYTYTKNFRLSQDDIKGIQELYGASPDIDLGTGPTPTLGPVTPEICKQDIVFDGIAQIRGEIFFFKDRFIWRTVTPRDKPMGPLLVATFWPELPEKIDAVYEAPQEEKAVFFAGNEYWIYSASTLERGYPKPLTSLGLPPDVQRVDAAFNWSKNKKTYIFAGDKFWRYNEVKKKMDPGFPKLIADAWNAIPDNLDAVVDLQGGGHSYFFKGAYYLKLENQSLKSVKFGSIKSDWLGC
The assay can be described thus: MMP-2 (gelatinase A) inhibitory activity, FITC-labeled type IV collagen degradation. In kind it is biochemical. As to conditions: 50% inhibition of collagen type IV degradation; activated pro MMP-2 from transfected COS-1 cells; 42° C., 4 h. On the procedure:
(§1) Experiment 2: MMP-2 (gelatinase A) and MMP-9 (gelatinase B) inhibitory activities.
(§2) Pro MMP-2 was obtained from culture medium separated from human pro-MMP-2 cDNA tranfected COS-1 cells. It was activated by 1 mM (p-aminophenyl)mercury acetic acid, and MMP-9, derived human fibrosarcome,was purchased from Yagai Co. Ltd. Inhibition of both enzyme activities were estimated by enzyme assay using type IV collagenase activity assay kit (Yagai Co. Ltd., Biswaz, C. et al., J. Cell.Biochem., 28, 39 (1984)). MMP-2 or MMP-9 (0.01 U/ml), test compound (several concentrations), and FITC-labeled type IV collagen (derived bovine placenta, 25 μg) were incubated in 100 μl of 0.05M Tris - HCl buffer (pH 7.5) containing 200 mM NaCl and 5 mM CaCl2 at 42° C. for 4 h. Inhibitory activity of compound was evaluated by same as that of MMP-1 assay. Unchanged type IV collagen was precipitated by centrifugation, and the degradation percent of substrate was calculated by comparison with a fluorescence intensity of heat denatured substrate as 100%. Inhibition of enzyme activity was expressed as an IC50 value which was the concentration of test compound necessary to produce 50% inhibition of collagen type IV degradation by enzyme.

A further assay addresses T2, MMP-9 (gelatinase B) (Homo sapiens, UniProt P14780).
T2 construct: purchased Yagai Co. Ltd; host or cells: human fibrosarcoma
The assay can be described thus: MMP-9 (gelatinase B) inhibitory activity, FITC-labeled type IV collagen degradation. In kind it is biochemical. As to conditions: 50% inhibition of collagen type IV degradation; MMP-9 derived from human fibrosarcoma; 42° C., 4 h. The method, then:
as §1, §2

T2 sequence (P14780 94-707): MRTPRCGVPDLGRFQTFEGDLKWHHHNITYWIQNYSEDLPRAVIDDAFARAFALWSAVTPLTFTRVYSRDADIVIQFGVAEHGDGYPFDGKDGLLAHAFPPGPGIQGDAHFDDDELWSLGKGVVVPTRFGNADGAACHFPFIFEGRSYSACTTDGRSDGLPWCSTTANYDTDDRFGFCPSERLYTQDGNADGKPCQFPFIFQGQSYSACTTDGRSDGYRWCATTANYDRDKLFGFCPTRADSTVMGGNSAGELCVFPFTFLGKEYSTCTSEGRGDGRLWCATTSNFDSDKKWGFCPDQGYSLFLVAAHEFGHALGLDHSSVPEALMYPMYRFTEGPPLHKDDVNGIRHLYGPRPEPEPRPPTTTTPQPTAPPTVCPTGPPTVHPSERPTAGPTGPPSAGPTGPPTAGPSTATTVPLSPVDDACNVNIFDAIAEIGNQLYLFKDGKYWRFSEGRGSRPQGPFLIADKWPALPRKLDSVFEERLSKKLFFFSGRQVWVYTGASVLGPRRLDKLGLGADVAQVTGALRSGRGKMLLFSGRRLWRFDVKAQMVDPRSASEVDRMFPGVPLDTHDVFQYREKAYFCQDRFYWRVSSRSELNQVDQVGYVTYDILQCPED

For `CNC(=O)[C@H](Cc1ccccc1)NC(=O)[C@H](CCc1ccc2cccccc1-2)CC(=O)O` [Compound 2, N-[(2R)-2-(1'-Carboxymethyl)-4-(azulene-1-yl)butyroyl]-L-phenylalanine N-Methylamide], the IC50 – broadly, the concentration at which inhibition is half-maximal – against MMP-2 (gelatinase A) came out at 390 nM; against MMP-9 (gelatinase B), 1300 nM.

On to `CNC(=O)[C@H](Cc1ccc(OC)cc1)NC(=O)[C@H](CCc1ccc2cccccc1-2)CC(=O)O` [Compound 3, (2S)-2-[(2R)-2-(1'-Carboxymethyl)-4-(azulene-1-yl)butyroyl)amino-3-(4-methoxy)phenylpropanoylmethylamide], for which the half-maximal inhibitory concentration (IC50) came to 240 nM on MMP-2 (gelatinase A) and 280 nM on MMP-9 (gelatinase B).

Regarding `CNC(=O)[C@@H](NC(=O)[C@H](CCc1ccc2cccccc1-2)CC(=O)O)C(C)(C)C` [Compound 4, N-[(2R)-2-(1'-Carboxymethyl)-4-(azulene-1-yl)butyroyl]-L-tert-leucine N-Methylamide], the figures for the IC50 at MMP-2 (gelatinase A) and against MMP-9 (gelatinase B) were 1000 nM and 300 nM, respectively.

For the compound `CNC(=O)[C@H](Cc1ccccc1)NC(=O)[C@H](CCCc1ccc2cccccc1-2)CC(=O)O` [Compound 5, N-[(2R)-2-(1'-Carboxymethyl)-5-(azulene-1-yl)pentanoyl]-L-phenylalanine N-Methylamide], the figures for the half-inhibitory concentration (IC50) against MMP-2 (gelatinase A) and at MMP-9 (gelatinase B) were > 10000 nM and 2800 nM, respectively.

For the compound `CCOc1ccc(C[C@H](NC(=O)[C@H](CCc2ccc3cccccc2-3)CC(=O)O)C(=O)NC)cc1` [Compound 6, (2S)-2-[(2R)-2-(1'-Carboxymethyl)-4-(azulene-1-yl)butyroyl]amino-3-(4-ethoxy)phenylpropanoyl methylamide], the IC50 against MMP-2 (gelatinase A) came out at 1000 nM; against MMP-9 (gelatinase B), 360 nM.

For the compound `CNC(=O)[C@H](Cc1ccccc1)NC(=O)[C@H](CCCCc1ccc2cccccc1-2)CC(=O)O` [Compound 7, N-[(2R)-2-(1'-Carboxymethyl)-6-(azulene-1-yl)hexanoyl]-L-phenylalanine N-Methylamide], the values for the IC50 at MMP-2 (gelatinase A) and on MMP-9 (gelatinase B) were > 10000 nM and 3000 nM, respectively.

For `CNC(=O)[C@H](Cc1ccccc1)NC(=O)[C@H](CCOc1ccc(OC)cc1)CC(=O)O` [Compound 8, N-[(2R)-2-(1'-Carboxymethyl)-4-[(4-methoxyphenyl)oxy]butyroyl]-L-phenylalanine N-Methylamide], the half-inhibitory concentration (IC50) at MMP-2 (gelatinase A) was 160 nM; on MMP-9 (gelatinase B), 35 nM.

Take `CCOc1ccc(OCC[C@H](CC(=O)O)C(=O)N[C@@H](Cc2ccccc2)C(=O)NC)cc1` [Compound 9, N-[(2R)-2-(1'-Carboxymethyl)-4-[(4-ethoxyphenyl)oxy]butyroyl]-L-phenylalanine N-Methylamide]: the IC50 against MMP-2 (gelatinase A) stood at 49 nM; against MMP-9 (gelatinase B), 39 nM.

As to `CNC(=O)[C@H](Cc1ccccc1)NC(=O)[C@H](CCCOc1ccc(OC)cc1)CC(=O)O` [Compound 10, N-[(2R)-2-(1'-Carboxymethyl)-5-[(4-methoxyphenyl)oxy]pentanoyl]-L-phenylanine N-Methylamide], the half-maximal inhibitory concentration (IC50) at MMP-2 (gelatinase A) came to 50 nM; against MMP-9 (gelatinase B) it was 5.1 nM.

Regarding `COc1ccc(OCCC[C@H](CC(=O)O)C(=O)N[C@@H](Cc2ccccc2)C(=O)NC(C)(C)C)cc1` [Compound 11], the IC50 against MMP-2 (gelatinase A) turned out to be 100 nM; at MMP-9 (gelatinase B) it was 14 nM.

For the compound `COc1ccc(OCCC[C@H](CC(=O)O)C(=O)N[C@@H](Cc2ccccc2)C(=O)NCCS(N)(=O)=O)cc1` [Compound 12, 2-[[N-(2R)-2-(1'-Carboxymethyl)-5-[(4-methoxyphenyl)oxy]pentanoyl]-L-phenylalanyl]amino-ethanesulfonamid], the concentration for half-maximal inhibition (IC50) on MMP-2 (gelatinase A) was found to be 21 nM; against MMP-9 (gelatinase B), 3 nM.

Regarding `CCOc1ccc(OCCC[C@H](CC(=O)O)C(=O)N[C@@H](Cc2ccccc2)C(=O)NC)cc1` [Compound 13, N-[(2R)-2-(1'-Carboxymethyl)-5-[(4-ethoxyphenyl)oxy]pentanoyl]-L-phenylalanine N-Methylamide], the IC50 came to 18 nM on MMP-2 (gelatinase A) and 13 nM against MMP-9 (gelatinase B).

Regarding `CNC(=O)[C@H](Cc1ccccc1)NC(=O)[C@H](CCCCOc1ccc(OC)cc1)CC(=O)O` [Compound 14], the concentration for half-maximal inhibition (IC50) on MMP-2 (gelatinase A) was found to be 160 nM; at MMP-9 (gelatinase B), 120 nM.

Consider `CCOc1ccc(OCCCC[C@H](CC(=O)O)C(=O)N[C@@H](Cc2ccccc2)C(=O)NC)cc1` [Compound 15, N-((2R)-2-(1'-Carboxymethyl)-6-[(4-ethoxyphenyl)oxy]hexanoyl]-L-phenylananine N-Methylamide], for which the IC50 at MMP-2 (gelatinase A) was 61 nM; at MMP-9 (gelatinase B) it was 420 nM.

Turning to `C=CCOc1ccc(OCCCC[C@H](CC(=O)O)C(=O)N[C@@H](Cc2ccccc2)C(=O)NC)cc1` [Compound 16, N-[(2R)-2-(1'-Carboxymethyl)-6-[(4-allyloxyphenyl)oxy]hexanoyl]-L-phenylananine N-Methylamide], the IC50 is 180 nM against MMP-2 (gelatinase A) and 1000 nM at MMP-9 (gelatinase B).

As to `CNC(=O)[C@H](Cc1ccc(OC)cc1)NC(=O)[C@H](CCOc1ccc(OC)cc1)CC(=O)O` [Compound 17, (2S)-2-[(2R)-2-(1'-Carboxymethyl)-4-[(4-methoxyphenyl)-oxy]butyroyl]amino-3-(4-methoxy)phenylpropanoylmethylamide], the IC50 at MMP-2 (gelatinase A) was 46 nM; on MMP-9 (gelatinase B), 13 nM.

Turning to `CNC(=O)[C@H](Cc1ccc(OC)cc1)NC(=O)[C@H](CCCOc1ccc(OC)cc1)CC(=O)O` [Compound 18], the values for the half-inhibitory concentration (IC50) against MMP-2 (gelatinase A) and against MMP-9 (gelatinase B) were 250 nM and 5.4 nM, respectively.

For the compound `COc1ccc(C[C@H](NC(=O)[C@H](CCCOc2ccc(OC)cc2)CC(=O)O)C(=O)NC(C)(C)C)cc1` [Compound 19, (2S)-2-[(2R)-2-(1'Carboxymethyl)-5-[(methoxyphenyl)oxy]pentanoyl]amino-3-(4-methoxy)phenylpropanoyl-tert-butylamide], the IC50 stood at 76 nM at MMP-2 (gelatinase A) and 13 nM on MMP-9 (gelatinase B).

In the case of `COc1ccc(C[C@H](NC(=O)[C@H](CCCOc2ccc(OC)cc2)CC(=O)O)C(=O)NCCS(N)(=O)=O)cc1` [Compound 20], the IC50 against MMP-2 (gelatinase A) is 16 nM; on MMP-9 (gelatinase B), 2.9 nM.

As for `CNC(=O)[C@H](Cc1ccc(OC)cc1)NC(=O)[C@H](CCCCOc1ccc(OC)cc1)CC(=O)O` [Compound 21, (2S)-2-[(2R)-2-(1'-Carboxymethyl)-6-[(4-methoxyphenyl)-oxy]hexanoyl]amino-3-(4-methoxy)phenylpropanoylmethylamide], the IC50 against MMP-2 (gelatinase A) was 160 nM; at MMP-9 (gelatinase B), 52 nM.

Regarding `CCOc1ccc(C[C@H](NC(=O)[C@H](CCCOc2ccc(OC)cc2)CC(=O)O)C(=O)NC)cc1` [Compound 22, (2S)-2-[(2R)-2-(1'-Carboxymethyl)-5-[(4-methoxyphenyl)-oxy]pentanoyl]amino-3-(4-ethoxy)phenylpropanoylmethylamide], the IC50 at MMP-2 (gelatinase A) turned out to be 140 nM; at MMP-9 (gelatinase B), 9.5 nM.

On to `CCOc1ccc(C[C@H](NC(=O)[C@H](CCCCOc2ccc(OC)cc2)CC(=O)O)C(=O)NC)cc1` [Compound 23, (2S)-2-[(2R)-2-(1'-Carboxymethyl)-6-[(4-methoxyphenyl)oxy]hexanoyl]amino-3-(4-ethoxy)phenylpropanoylmethylamide], for which the IC50 at MMP-2 (gelatinase A) is 200 nM; at MMP-9 (gelatinase B), 51 nM.

On to `CNC(=O)[C@@H](NC(=O)[C@H](CCCOc1ccc(OC)cc1)CC(=O)O)C(C)(C)C` [Compound 24, N-[(2R)-2-(1'-Carboxymethyl)-5-[(4-methoxyphenyl)oxy]pentanoyl]-L-tert-leucine N-Methylamide], for which the values for the half-maximal inhibitory concentration (IC50) against MMP-2 (gelatinase A) and against MMP-9 (gelatinase B) were 140 nM and 7.2 nM, respectively.

Take `COc1ccc(OCCC[C@H](CC(=O)O)C(=O)N[C@H](C(=O)NC(C)(C)C)C(C)(C)C)cc1` [Compound 25, N-[(2R)-2-(1'-Carboxymethyl)-5-[(4-methoxyphenyl)oxy]pentanoyl]-L-tert-leucine N-tert-Butylamide]: the IC50 on MMP-2 (gelatinase A) is 200 nM; at MMP-9 (gelatinase B) it was 28 nM.

On to `COc1ccc(OCCC[C@H](CC(=O)O)C(=O)N[C@H](C(=O)NCCS(N)(=O)=O)C(C)(C)C)cc1` [Compound 26], for which the IC50 worked out at 48 nM at MMP-2 (gelatinase A) and 6.5 nM against MMP-9 (gelatinase B).

With `CNC(=O)[C@@H]1Cc2ccccc2CN1C(=O)[C@H](CCCOc1ccc(OC)cc1)CC(=O)O` [Compound 27, N-[(2R)-2-(1'-Carboxymethyl)-5-[(4-methoxyphenyl)oxy]pentanoyl]-L-tetrahydroisoquinoline N-Methylamide], the values for the half-inhibitory concentration (IC50) against MMP-2 (gelatinase A) and against MMP-9 (gelatinase B) were > 10000 nM and 1500 nM, respectively.
